Here are results for four compounds from patent US10653710B2, “Combination therapy for treating malignancies” (Agios Pharmaceuticals, Inc., priority 2015, dated 2020).

The nature of data set [1]: solubility in fasted state simulated intestinal fluid (FASSIF). Type of data set: physicochemical. The following applies: pH 6.1, fassif, thermodynamic from solid, pH of 6.1 at 4 hours. As to the method:
In comparison, amorphous spray-dried dispersions have a solubility of about 0.05 mg/mL to about 0.50 mg/mL in FASSIF at 3 hours.

The test system of a further data set is TF-1-IDH1^R132H cells. Nature of the data set: growth and apoptosis by IncuCyte Zoom real-time imaging. Type of data set: cell-based. The following applies: AZA 1 μM; for cell growth compared to the DMSO control: COMPOUND 2 0.1, 0.3 or 1.0 μM; for induction of apoptosis: late time points (>60 hrs), combination with 0.1 and 0.3 μM COMPOUND 2. The procedure:
(§1) EPO differentiation assay in TF1-IDH1^R132H cells. […] Endpoints assessed assays were: cell pellet color evaluation (hemoglobinization assay); HBG and KLF1 RNA by RT-qPCR; CD235a-positive cell populations by flow cytometry (differentiation markers); and Growth and apoptosis by IncuCyte Zoom real-time imaging.
In order to track cell growth and death in real-time, a real-time analysis was performed using IncuCyte Zoom (FIG. 4).

Data set [2] deals with TF1-IDH1^R132H cells. As to the kind of experiment: HBG and KLF1 RNA by RT-qPCR in EPO differentiation assay. Type of data set: cell-based. The following applies: concurrent schedule; for increase in HBG gene expression: COMPOUND 2 0.2 μM, AZA 1.0 μM, single agents or combined. As to the method:
EPO differentiation assay in TF1-IDH1^R132H cells. […] Cells were treated with vehicle, AZA alone, COMPOUND 2 alone, or the combination of AZA+COMPOUND 2. In the sequential schedule, cells were pre-treated with AZA for three days before addition of COMPOUND 2. In the concurrent schedule, cells were co-treated with AZA and COMPOUND 2 throughout the assay. Endpoints assessed assays were: cell pellet color evaluation (hemoglobinization assay); HBG and KLF1 RNA by RT-qPCR; CD235a-positive cell populations by flow cytometry (differentiation markers); and Growth and apoptosis by IncuCyte Zoom real-time imaging.
Cells were treated with vehicle, AZA alone, COMPOUND 2 alone, or the combination of AZA+COMPOUND 2. In the sequential schedule, cells were pre-treated with AZA for three days before addition of COMPOUND 2. In the concurrent schedule, cells were co-treated with AZA and COMPOUND 2 throughout the assay.
Background: In qPCR the cycle at which signal appears reflects the starting amount.

Data set [3] relates to TF1-IDH1^R132H cells. Nature of the data set: EPO differentiation assay, cell pellet color evaluation (hemoglobinization assay). In kind it is cell-based. The following applies: concurrent schedule; COMPOUND 2 0.2 and 1.0 μM; AZA up to 1 uM.
From the text: as §1

For data set [4] the following is noted: cited from earlier work.
Data set [5] deals with TF1-IDH1^R132H cells. Nature of the data set: CD235a-positive cell populations by flow cytometry in EPO differentiation assay. Type of data set: cell-based. Conditions: concurrent schedule.
From the text: as §1
In general terms: A flow cytometer gives signals particle by particle.

SMILES strings stand for the structures. Values after ≈ are worked out from the molar mass of the structure shown. Read-outs that look alike come from different tables or passages of the source.

For the compound `N#Cc1ccnc(N2C(=O)CC[C@H]2C(=O)N(c2cncc(F)c2)[C@H](C(=O)NC2CC(F)(F)C2)c2ccccc2Cl)c1` [Form 2, (S)-N-((S)-1-(2-chlorophenyl)-2-((3,3-difluorocyclobutyl)amino)-2-oxoethyl)-1-(4-cyanopyridin-2-yl)-N-(5-fluoropyridin-3-yl)-5-oxopyrrolidine-2-carboxamide], in data set [1], the solubility at 4 h is roughly 18 µg/mL (≈ 30.9 µM).
Consider `Nc1ncn([C@@H]2O[C@H](CO)[C@@H](O)[C@H]2O)c(=O)n1` [AZA, 4-amino-1-β-D-ribofuranozyl-s-triazin-2(1H)-one], for which the “cell growth compared to the DMSO control” value in the data set on TF-1-IDH1^R132H cells was “slowed growth”. The induction of apoptosis result with TF-1-IDH1^R132H cells is given as “increased apoptosis above the DMSO control”. Besides, the “increase in HBG gene expression” value in the data set with TF1-IDH1^R132H cells [2] is 1 fold. In addition, the “hemoglobinization (red color of cell pellets)” value in the data set on TF1-IDH1^R132H cells [3] was “little or no effect on cell pellet color”. For the same compound, the solubility entry in data set [4] (in acetone, ethanol and methyl ketone) was “insoluble”; in data set [4] (in dimethylsulfoxide (DMSO)), “soluble”; in data set [4] (in ethanol/water (50/50), propylene glycol and polyethylene glycol), “slightly soluble”; in data set [4] (in water, water-saturated octanol, 5% dextrose in water, N-methyl-2-pyrrolidone, normal saline and 5% Tween 80 in water), “sparingly soluble”.
On to `N#Cc1ccnc(N2C(=O)CC[C@H]2C(=O)N(c2cncc(F)c2)[C@H](C(=O)NC2CC(F)(F)C2)c2ccccc2Cl)c1` [COMPOUND 2, (S)-N-((S)-1-(2-chlorophenyl)-2-((3,3-difluorocyclobutyl)amino)-2-oxoethyl)-1-(4-cyanopyridin-2-yl)-N-(5-fluoropyridin-3-yl)-5-oxopyrrolidine-2-carboxamide], for which the “erythroid differentiation marker CD235a (Glycophorin A) expression” value in the data set with TF1-IDH1^R132H cells [5] is on record as “increased erythroid differentiation marker CD235a”. In the data set on TF-1-IDH1^R132H cells, the “cell growth compared to the DMSO control” value is “slightly promoted cell growth” and the induction of apoptosis result was “no effect on induction of apoptosis”. Further, in the data set with TF1-IDH1^R132H cells [2], the “RNA expression of differentiation marker KLF1” value is recorded as “Dose-dependent increases” and the “increase in HBG gene expression” value is on record as 25 fold. Besides, the “RNA expression of differentiation marker HBG” value with TF1-IDH1^R132H cells [2] (combination with COMPOUND 2 0.2 μM) is reported as “dose-dependent increases”. For the same compound, the “hemoglobinization (red color of cell pellets)” value with TF1-IDH1^R132H cells [3] was “increased hemoglobin production in a dose-dependent manner”.
On to `Nc1ncn([C@H]2C[C@H](O)[C@@H](CO)O2)c(=O)n1` [Decitabine, 4-amino-1-(2-deoxy-β-D-erythro-pentofuranosyl)-1,3,5-triazin-2(1H)one], for which the solubility entry in data set [4] (in dimethylsulfoxide (DMSO)) is “soluble”; in data set [4] (in ethanol/water (50/50), methanol/water (50/50) and methanol), “slightly soluble”; in data set [4] (in water) it was “sparingly soluble”.

The term solubility denotes how much of the substance goes into solution per volume.
